{"source": "patent US12091386B2", "about": "“D-amphetamine compounds, compositions, and processes for making and using the same” (Zevra Therapeutics, Inc., priority 2018, dated 2024)", "assay": "Intravenous pharmacokinetic study in rats (tail vein injection)", "type": "in vivo, rat", "conditions": "FIG. 10, versus isonicotinate analogue"}
{"compound": "CCOC(=O)c1ccc[n+](COC(=O)N[C@@H](C)Cc2ccccc2)c1", "note": "[AMP-CO2CH2-nicotinate(Et), d-amphetamine-CO2CH2-nicotinate ethyl ester]", "values": [{"measurement": "exposure to d-amphetamine after intravenous administration compared to AMP-CO2CH2-isonicotinate(Et)", "result": "decreases exposure to d-amphetamine"}]}
